# Assay results taken from patent publication US9815846B2 (Merck Sharp & Dohme Corp., priority 2014, dated 2017).
# Target: human TrkA receptor (Homo sapiens (Human), UniProt P04629)
# Assay: DiscoverX PathHunter TrkA functional assay (NGF-stimulated U2OS cells)
# Type: cell-based
# Conditions: U2OS cells expressing human TrkA-PK, Shc1-EA and p75NTR; compound 1 h, then NGF at ~80% of maximal response for 3 h; luminescence
# Sequence of human TrkA receptor (P04629 33-796): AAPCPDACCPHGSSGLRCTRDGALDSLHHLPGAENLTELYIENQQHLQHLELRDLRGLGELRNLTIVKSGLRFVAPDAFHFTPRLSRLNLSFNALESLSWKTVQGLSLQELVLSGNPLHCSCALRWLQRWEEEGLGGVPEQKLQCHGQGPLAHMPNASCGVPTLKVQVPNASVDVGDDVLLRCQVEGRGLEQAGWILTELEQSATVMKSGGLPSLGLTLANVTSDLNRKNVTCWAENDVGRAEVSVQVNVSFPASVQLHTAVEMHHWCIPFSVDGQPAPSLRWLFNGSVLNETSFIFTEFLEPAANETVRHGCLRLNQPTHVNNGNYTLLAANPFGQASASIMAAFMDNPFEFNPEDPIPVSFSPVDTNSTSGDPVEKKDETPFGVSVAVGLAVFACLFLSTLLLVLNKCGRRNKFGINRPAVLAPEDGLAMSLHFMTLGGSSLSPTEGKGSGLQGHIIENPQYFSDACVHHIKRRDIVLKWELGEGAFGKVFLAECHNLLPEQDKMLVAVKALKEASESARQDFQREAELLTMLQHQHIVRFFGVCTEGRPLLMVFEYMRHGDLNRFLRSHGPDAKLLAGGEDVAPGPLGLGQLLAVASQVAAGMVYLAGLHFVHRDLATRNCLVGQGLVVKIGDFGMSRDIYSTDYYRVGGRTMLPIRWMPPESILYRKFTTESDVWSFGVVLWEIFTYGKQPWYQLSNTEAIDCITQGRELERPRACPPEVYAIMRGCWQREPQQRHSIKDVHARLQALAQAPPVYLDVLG
row,Structure (SMILES),IC50
1,"CNC(=O)c1ccc(-c2cnc(-c3ccccc3)c(NC(=O)c3cc(-c4cc[nH]n4)c(C(F)(F)F)cc3F)c2)cc1 [Example 166, 2-fluoro-N-(5-(4-(methylcarbamoyl)phenyl)-2-phenylpyridin-3-yl)-5-(1H-pyrazol-3-yl)-4-(trifluoromethyl)benzamide]",12 nM
2,"O=C(Nc1cc(Oc2ccccn2)cnc1-c1ccccc1)c1cc(-c2ncccn2)c(C(F)(F)F)cc1F [Example 167, 2-fluoro-N-(2-phenyl-5-(pyridin-2-yloxy)pyridin-3-yl)-5-(pyrimidin-2-yl)-4-(trifluoromethyl)benzamide]",24 nM
3,"O=C(Nc1cc(-c2ccc(CO)cn2)cnc1-c1ccccc1)c1cc(-c2ncccn2)c(C(F)(F)F)cc1F [Example 168, 2-fluoro-N-(5-(hydroxymethyl)-6′-phenyl-[2,3′-bipyridin]-5′-yl)-5-(pyrimidin-2-yl)-4-(trifluoromethyl)benzamide]",0.68 nM
4,"NC(=O)c1cnc(-c2cnc(-c3ccccc3)c(NC(=O)c3cc(-c4ncccn4)c(C(F)(F)F)cc3F)c2)nc1 [Example 169, 2-(5-(2-fluoro-5-(pyrimidin-2-yl)-4-(trifluoromethyl)benzamido)-6-phenylpyridin-3-yl)pyrimidine-5-carboxamide]",0.59 nM
5,"CC(=O)NCc1cnc(-c2cnc(-c3ccccc3)c(NC(=O)c3cc(-c4ncccn4)c(C(F)(F)F)cc3F)c2)nc1 [Example 170, N-(5-(5-(acetamidomethyl)pyrimidin-2-yl)-2-phenylpyridin-3-yl)-2-fluoro-5-(pyrimidin-2-yl)-4-(trifluoromethyl)benzamide]",16 nM
6,"Cn1ccc(-c2cc(C(=O)Nc3cc(-c4ccc(C(=O)O)cn4)cnc3-c3ccccc3)c(F)cc2C(F)(F)F)n1 [Example 171, 5′-(2-fluoro-5-(1-methyl-1H-pyrazol-3-yl)-4-(trifluoromethyl)benzamido)-6′-phenyl-[2,3′-bipyridine]-5-carboxylic acid]",10 nM
7,"Cn1ccc(-c2cc(C(=O)Nc3cc(-c4ccc(C(C)(C)O)cn4)cnc3-c3ccccc3)c(F)cc2C(F)(F)F)n1 [Example 172, 2-fluoro-N-(5-(2-hydroxypropan-2-yl)-6′-phenyl-[2,3′-bipyridin]-5′-yl)-5-(1-methyl-1H-pyrazol-3-yl)-4-(trifluoromethyl)benzamide]",0.26 nM
8,"NC(=O)c1ccnc(-c2cnc(-c3ccccc3)c(NC(=O)c3cc(-c4ncccn4)c(C(F)(F)F)cc3F)c2)n1 [Example 173, 2-(5-(2-fluoro-5-(pyrimidin-2-yl)-4-(trifluoromethyl)benzamido)-6-phenylpyridin-3-yl)pyrimidine-4-carboxamide]",4.9 nM
9,"CNC(=O)c1ccc(-c2cnc(-c3ccccc3)c(NC(=O)c3cc(-c4ncccn4)c(C(F)(F)F)cc3F)c2)nc1 [Example 174, 5′-(2-fluoro-5-(pyrimidin-2-yl)-4-(trifluoromethyl)benzamido)-N-methyl-6′-phenyl-[2,3′-bipyridine]-5-carboxamide]",4.8 nM
10,"NC(=O)c1ncc(-c2cnc(-c3ccccc3)c(NC(=O)c3cc(-c4ncccn4)c(C(F)(F)F)cc3F)c2)cn1 [Example 175, 5-(5-(2-fluoro-5-(pyrimidin-2-yl)-4-(trifluoromethyl)benzamido)-6-phenylpyridin-3-yl)pyrimidine-2-carboxamide]",12.4 nM
11,"O=C(Nc1cc(OCc2ccncc2)cnc1-c1ccccc1)c1cc(-c2ncccn2)c(C(F)(F)F)cc1F [Example 176, 2-fluoro-N-(2-phenyl-5-(pyridin-4-ylmethoxy)pyridin-3-yl)-5-(pyrimidin-2-yl)-4-(trifluoromethyl)benzamide]",6.3 nM
12,"NC(=O)N1CCN(c2cnc(-c3ccccc3)c(NC(=O)c3cc(-c4ncccn4)c(C(F)(F)F)cc3F)c2)CC1 [Example 177, 4-(5-(2-fluoro-5-(pyrimidin-2-yl)-4-(trifluoromethyl)benzamido)-6-phenylpyridin-3-yl)piperazine-1-carboxamide]",18 nM
13,"CC(N)c1ccc(-c2cnc(-c3ccccc3)c(NC(=O)c3cc(-c4ccn(C)n4)c(C(F)(F)F)cc3F)c2)nc1 (stereo not drawn) [Example 178, N-(5-(1-aminoethyl)-6′-phenyl-[2,3′-bipyridin]-5′-yl)-2-fluoro-5-(1-methyl-1H-pyrazol-3-yl)-4-(trifluoromethyl)benzamide]",0.29 nM
14,"Cn1ccc(-c2cc(C(=O)Nc3cnc(Cc4nnnn4C)nc3-c3ccccc3)c(F)cc2C(F)(F)F)n1 [Example 179, 2-Fluoro-5-(1-methyl-1H-pyrazol-3-yl)-N-(2-((1-methyl-1H-tetrazol-5-yl)methyl)-4-phenylpyrimidin-5-yl)-4-(trifluoromethyl)benzamide]",1 nM
15,"CCn1c(Cc2ncc(NC(=O)c3cc(-c4ccn(C)n4)c(C(F)(F)F)cc3F)c(-c3ccccc3)n2)n[nH]c1=O [Example 180, N-(2-((4-ethyl-5-oxo-4,5-dihydro-1H-1,2,4-triazol-3-yl)methyl)-4-phenylpyrimidin-5-yl)-2-fluoro-5-(1-methyl-1H-pyrazol-3-yl)-4-(trifluoromethyl)benzamide]",3.2 nM
16,"Cn1ccc(-c2cc(C(=O)Nc3cnc(CN4CCN(S(C)(=O)=O)CC4)nc3-c3ccccc3)c(F)cc2C(F)(F)F)n1 [Example 182, 2-Fluoro-5-(1-methyl-1H-pyrazol-3-yl)-N-(2-((4-(methylsulfonyl)piperazin-1-yl)methyl)-4-phenylpyrimidin-5-yl)-4-(trifluoromethyl)benzamide]",5.1 nM
17,"Cn1ccc(-c2cc(C(=O)Nc3ccc(CN4CC5(COC5)C4)nc3-c3ccccc3)c(F)cc2C(F)(F)F)n1 [Example 183, N-(6-((2-oxa-6-azaspiro[3.3]heptan-6-yl)methyl)-2-phenylpyridin-3-yl)-2-fluoro-5-(1-methyl-1H-pyrazol-3-yl)-4-(trifluoromethyl)benzamide]",7 nM
18,"Cn1ccc(-c2cc(C(=O)Nc3cnc(CN4C[C@@H](O)[C@@H](O)C4)nc3-c3ccccc3)c(F)cc2C(F)(F)F)n1 [Example 184, N-(2-(((3S,4R)-3,4-dihydroxypyrrolidin-1-yl)methyl)-4-phenylpyrimidin-5-yl)-2-fluoro-5-(1-methyl-1H-pyrazol-3-yl)-4-(trifluoromethyl)benzamide]",4.1 nM
19,"O=C(Nc1cc2c(nc1-c1ccccc1)C(=O)NC2=O)c1cc(-c2ncccn2)c(C(F)(F)F)cc1F [Example 185, N-(5,7-Dioxo-2-phenyl-6,7-dihydro-5H-pyrrolo[3,4-b]pyridin-3-yl)-2-fluoro-5-(pyrimidin-2-yl)-4-(trifluoromethyl)benzamide]",18 nM

# The next lines start with the values.
row,IC50,Structure (SMILES)
1,0.68 nM,"Cn1ccc(-c2cc(C(=O)Nc3cnc(CN4C(=O)CCC4=O)nc3-c3ccccc3)c(F)cc2C(F)(F)F)n1 [Example 187, N-(2-((2,5-dioxopyrrolidin-1-yl)methyl)-4-phenylpyrimidin-5-yl)-2-fluoro-5-(1-methyl-1H-pyrazol-3-yl)-4-(trifluoromethyl)benzamide]"
2,2.9 nM,"Cn1ccc(-c2cc(C(=O)Nc3cc4c(nc3-c3ccccc3)CNC4)c(F)cc2C(F)(F)F)n1 [Example 188, 2-Fluoro-5-(1-methyl-1H-pyrazol-3-yl)-N-(2-phenyl-6,7-dihydro-5H-pyrrolo[3,4-b]pyridin-3-yl)-4-(trifluoromethyl)benzamide]"
3,3.9 nM,"Cn1ccc(-c2cc(C(=O)Nc3cnc(C4CCCNC4=O)nc3-c3ccccc3)c(F)cc2C(F)(F)F)n1 (stereo not drawn) [Example 193, 2-Fluoro-5-(1-methyl-1H-pyrazol-3-yl)-N-(2-(2-oxopiperidin-3-yl)-4-phenylpyrimidin-5-yl)-4-(trifluoromethyl)benzamide]"
4,2.6 nM,"Cn1ccc(-c2cc(C(=O)Nc3cc(S(C)(=O)=O)cnc3-c3ccccc3)c(F)cc2C(F)(F)F)n1 [Example 194, 2-Fluoro-5-(1-methyl-1H-pyrazol-3-yl)-N-(5-(methylsulfonyl)-2-phenylpyridin-3-yl)-4-(trifluoromethyl)benzamide]"
5,2.8 nM,"Cn1ccc(-c2cc(C(=O)Nc3cc(S(C)(=N)=O)cnc3-c3ccccc3)c(F)cc2C(F)(F)F)n1 (stereo not drawn) [Example 195, 2-fluoro-5-(1-methyl-1H-pyrazol-3-yl)-N-(5-(S-methylsulfonimidoyl)-2-phenylpyridin-3-yl)-4-(trifluoromethyl)benzamide]"
6,4 nM,"Cn1ccc(-c2cc(C(=O)Nc3cnc(CS(C)(=O)=O)nc3-c3ccccc3)c(F)cc2C(F)(F)F)n1 [Example 199, 2-Fluoro-5-(1-methyl-1H-pyrazol-3-yl)-N-(2-((methylsulfonyl)methyl)-4-phenylpyrimidin-5-yl)-4-(trifluoromethyl)benzamide]"
7,4.4 nM,"CNS(=O)(=O)Cc1ccc(NC(=O)c2cc(-c3ccn(C)n3)c(C(F)(F)F)cc2F)c(-c2ccccc2)n1 [Example 200, 2-fluoro-5-(1-methyl-1H-pyrazol-3-yl)-N-(6-((N-methylsulfamoyl)methyl)-2-phenylpyridin-3-yl)-4-(trifluoromethyl)benzamide]"
8,2.8 nM,"Cn1ccc(-c2cc(C(=O)Nc3cnc(CC4CC(=O)NC4=O)nc3-c3ccccc3)c(F)cc2C(F)(F)F)n1 (stereo not drawn) [Example 201, N-(2-((2,5-Dioxopyrrolidin-3-yl)methyl)-4-phenylpyrimidin-5-yl)-2-fluoro-5-(1-methyl-1H-pyrazol-3-yl)-4-(trifluoromethyl)benzamide]"
9,3.7 nM,"Cn1ccc(-c2cc(C(=O)Nc3cc(CC(N)=O)cnc3-c3ccccc3)c(F)cc2C(F)(F)F)n1 [Example 202, N-(5-(2-Amino-2-oxoethyl)-2-phenylpyridin-3-yl)-2-fluoro-5-(1-methyl-1H-pyrazol-3-yl)-4-(trifluoromethyl)benzamide]"
10,6 nM,"Cn1ccc(-c2cc(C(=O)Nc3cc(CC(N)=O)cnc3-c3ccccc3)ccc2C(F)(F)F)n1 [Example 203, N-(5-(2-amino-2-oxoethyl)-2-phenylpyridin-3-yl)-3-(1-methyl-1H-pyrazol-3-yl)-4-(trifluoromethyl)benzamide]"
11,8.3 nM,"O=C(Nc1cc(Cc2cnco2)cnc1-c1ccccc1)c1cc(-c2ncccn2)c(C(F)(F)F)cc1F [Example 204, 2-fluoro-N-(5-(oxazol-5-ylmethyl)-2-phenylpyridin-3-yl)-5-(pyrimidin-2-yl)-4-(trifluoromethyl)benzamide]"
